Data reported in patent publication US10227332B2, “T-type calcium channel modulator and uses thereof” (UTI Limited Partnership, priority 2014, dated 2019).

Key:
rCB1 = rCB1 (Rattus norvegicus (Rat), UniProt P20272); assay: Radioligand competitive binding assay, CB1 receptor (NIMH PDSP); conditions: means of three experiments run in triplicate
Text: (§1) The compounds was screened using whole-cell voltage clamp techniques for their ability to mediate tonic block of transiently expressed hCav3.2 channels (FIG. 1). Next, radioligand binding assays were used to assess the affinities of these compounds for both CB1 and CB2 receptors (Table 1).
(§2) CB1 and CB2 radioligand binding data were obtained using National Institute of Mental Health (NIMH) Psychoactive Drug Screening Program (PDSP) resources as described earlier.

hCB2 = hCB2 (Homo sapiens (Human), UniProt P34972); assay: Radioligand competitive binding assay, CB2 receptor (NIMH PDSP); conditions: means of three experiments run in triplicate
Text: as §1, §2

wild type mice = assay: Open-field test (locomotor activity); format: in vivo, mouse; conditions: 30 mg/kg, i.p.
Text: (§3) During experiments, all efforts were made to minimize animal suffering according to the policies and recommendations of the International Association for the Study of Pain and all protocols used were approved by the Institutional Animal Care and Use Committee. For all experiments, either adult male C57BL/6J (wild-type) or CACNA1H knockout (Cav3.2 null) mice (20-25 g) purchased from Jackson Laboratories were used. There were a maximum of five mice per cage (30×20×15 cm) and access to food and water was unlimited. Temperature was kept at 23±1° C. on a 12 h light/dark cycle (lights on at 7:00 a.m.). Intraperitoneal (i.p.) injections of drugs were a constant volume of 10 ml/kg body weight. Intrathecal (i.t.) injections used volumes of 10 μl and were performed using the method described previously and carried out routinely in our laboratory. All drugs were dissolved in 1% or less DMSO, whereas control animals received PBS+1% DMSO. For each test, a different group of mice were used and only one experiment per mouse was performed.
Briefly, the apparatus consisted of a wooden box measuring 40×60×50 cm with a glass front wall. The floor was divided into 12 equal squares and the entire apparatus was placed in a sound free room. Animals were placed in the rear left square and left to explore freely and the number of squares crossed with all paws (crossing) in a 6 minute timeframe was counted. […]

[1] = test system: mice with partial sciatic nerve injury; assay: Partial sciatic nerve injury (PNI)-induced neuropathic pain, mechanical hyperalgesia; format: in vivo, mouse; conditions: 30 mg/kg, i.p.; after treatment
Text: as §3
Before surgery, mice were anaesthetised with isoflurane (5% induction, 2.5% maintenance). […] Mechanical hyperalgesia was then evaluated in a time-dependant manner.
Mechanical hyperalgesia responses were recorded immediately before the surgeries (baselines), 14 days after the surgeries (0) and at various time points (0.5, 1, 2, 3 h) after treatment. […]

[2] = test system: wild-type mice, formalin-induced pain; assay: Formalin test (acute nociceptive and inflammatory phases); format: in vivo, mouse; conditions: for inhibition of pain response time, first phase: formalin first phase; for inhibition of pain response time, second phase: formalin second phase
Text: as §3
Before experiments were performed, mice were left to acclimatize for at least 60 minutes. Animals were then injected intraplantarily (i.pl.) in the ventral surface of the right hindpaw with 20 μl of a formalin solution (1.25%) made up in PBS. Following i.pl. injections of formalin, individual animals were placed immediately into observation chambers and monitored from 0-5 min (acute nociceptive phase) and 15-30 min (inflammatory phase).

[3] = 1-10 μg/i.t., 20 minutes before
[4] = 10-100 mg/kg, i.p., 30 minutes prior

SMILES	rCB1 Ki (rCB1)	hCB2 Ki (hCB2)	locomotor activity in open-field test (wild type mice)	locomotor activity in open-field test (wild type mice; listed as compound 9)	duration of attenuation of mechanical hyperalgesia [1]	inhibition of pain response time, first phase [2, 3]	inhibition of pain response time, second phase [2, 3]	inhibition of pain response time, first phase [2, 4]	inhibition of pain response time, second phase [2, 4]
CCCCCn1c2ccccc2c2cc(C(=O)NCC3CCNCC3)ccc21 [Compound 7, 9-Pentyl-N-(piperidin-4-ylmethyl)-9H-carbazole-3-carboxamide]	n.b.	n.b.							
CCCCCn1c2ccccc2c2cc(C(=O)NCC3CCN(CC(=O)NC(C)(C)C)CC3)ccc21 [Compound 9, N-((1-(2-(tert-butylamino)-2-oxoethyl)piperidin-4-yl)methyl)-9-pentyl-9H-carbazole-3-carboxamide]			no significant motor deficits	did not significantly affect locomotor activity	> 3 h	61±8%	76±10%	47±2%	66±48%
